Assay results taken from publication PMC3933419, “Synthesis and Properties of a Selective Inhibitor of Homeodomain–Interacting Protein Kinase 2 (HIPK2)” (PLoS ONE, 2014).
“And” between values parts separate entries of the source, which are not always exact repeats. Identical values can stand only once.

What was measured:
[1] = biological target: T1, endogenous HIPK2 (Homo sapiens, UniProt Q9H2X6); assay: Activity of HIPK2 immunoprecipitated from treated HepG2 cells; format: cell-based
T1 construct: endogenous in cells; host or cells: HepG2
T1 sequence (Q9H2X6 whole entry): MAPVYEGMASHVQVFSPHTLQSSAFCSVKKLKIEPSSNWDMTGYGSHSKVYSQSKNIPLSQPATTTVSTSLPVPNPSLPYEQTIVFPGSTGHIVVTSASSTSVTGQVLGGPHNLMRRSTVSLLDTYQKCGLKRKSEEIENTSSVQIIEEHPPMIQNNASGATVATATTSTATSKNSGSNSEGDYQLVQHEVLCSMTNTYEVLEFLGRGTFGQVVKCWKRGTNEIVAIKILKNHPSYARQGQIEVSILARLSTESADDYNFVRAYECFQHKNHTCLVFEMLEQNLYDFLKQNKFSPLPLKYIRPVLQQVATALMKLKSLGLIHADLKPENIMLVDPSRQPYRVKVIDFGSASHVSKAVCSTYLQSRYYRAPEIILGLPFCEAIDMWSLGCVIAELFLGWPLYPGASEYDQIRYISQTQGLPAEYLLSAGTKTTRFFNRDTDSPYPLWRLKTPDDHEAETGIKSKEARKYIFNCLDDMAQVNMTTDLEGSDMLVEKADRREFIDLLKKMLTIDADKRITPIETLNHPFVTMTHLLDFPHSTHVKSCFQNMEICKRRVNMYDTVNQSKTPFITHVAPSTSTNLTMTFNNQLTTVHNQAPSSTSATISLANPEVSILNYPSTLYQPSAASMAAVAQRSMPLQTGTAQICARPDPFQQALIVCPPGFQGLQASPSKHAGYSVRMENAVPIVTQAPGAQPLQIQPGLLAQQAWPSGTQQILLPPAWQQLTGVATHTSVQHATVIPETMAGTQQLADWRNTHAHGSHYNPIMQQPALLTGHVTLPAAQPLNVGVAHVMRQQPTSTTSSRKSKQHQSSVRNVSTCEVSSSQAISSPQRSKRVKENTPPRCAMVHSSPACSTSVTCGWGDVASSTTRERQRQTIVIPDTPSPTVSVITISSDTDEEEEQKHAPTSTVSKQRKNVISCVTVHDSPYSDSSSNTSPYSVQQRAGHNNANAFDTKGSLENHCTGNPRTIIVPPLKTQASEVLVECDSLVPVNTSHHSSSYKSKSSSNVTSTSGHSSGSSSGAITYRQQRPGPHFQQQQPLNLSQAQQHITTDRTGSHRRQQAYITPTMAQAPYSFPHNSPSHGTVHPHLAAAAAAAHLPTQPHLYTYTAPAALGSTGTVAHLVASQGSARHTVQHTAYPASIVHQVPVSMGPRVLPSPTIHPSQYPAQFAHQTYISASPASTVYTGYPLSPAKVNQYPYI
Description: (§1) HepG2 cells (human hepatocellular carcinoma) were cultured in Dulbecco's modified Eagle's medium (DMEM; Sigma) supplemented with 10% fetal calf serum, 2 mM L-glutamine, 100 unit/ml penicillin and 100 µg/ml streptomycin; CEM cells (human T lymphoblastoid cells) were cultured n RPMI-1640 (Sigma) with the same supplements. Cells were cultured in an atmosphere containing 5% CO2, at 37°C. Treatments with TBID were performed in the same medium but with 1% fetal calf serum; control cells were treated with the solvent (DMSO). Total cell lysates were prepared as in [29].
Alternatively, HIPK2 was immunoprecipitated with 2.5 µl anti-HIPK2 (Epitomics) from 350 µg of total lysate proteins deriving from HepG2 cells either treated or not with TBID following a protocol elsewhere described. An aspecific antibody was used as negative control. Immunoprecipitated HIPK2 activity was measured towards the specific peptide substrate ([…]) at 1.6 mM concentration, for 10 min at 30°C, under the same conditions described above for the in vitro kinase assay. Peptide radioactivity was measured after sample spotting on phospho-cellulose paper, washing and scintillation counting, as in [30], while the amount of HIPK2 immunoprecipitated was evaluated by WB.

[2] = system: panel of 76 protein kinases; assay: Selectivity parameters (Lorenz curve, Gini coefficient, hit rate) of TBID; format: biochemical
Description: (§2) Conditions for the activity assays of all other protein kinases tested in selectivity experiments are as described or referenced in [9].
Lorenz curves were derived from the selectivity data. Gini coefficients and hit rates (expressing the percent of kinases inhibited >50% by a given compound) were calculated as described in [25].

[3] = system: Ser46 of p53; assay: Phosphorylation of p53 Ser46 in treated CEM cells (WB); format: cell-based, human; details: 6 h treatment
Description: Treatments with TBID were performed in the same medium but with 1% fetal calf serum; control cells were treated with the solvent (DMSO). Total cell lysates were prepared as in [29].
Endogenous HIPK2 activity was evaluated by measuring the phosphorylation level of its target site Ser46 of p53: to this purpose, CEM cells were treated for 6 h as indicated, then lysed. […] Bands were quantified by Carestream Molecular Imaging Software (Kodak) and the obtained values were normalized to total p53 signal with a Cell Signaling Technology antibody; anti-actin (Sigma) was used as loading control.

[4] = biological target: T2, HIPK2 (Homo sapiens, UniProt Q9H2X6); assay: HIPK2 kinase inhibition assay (33P-ATP, peptide […]); format: biochemical; details: 20 µM ATP; in vitro
T2 construct: The source of HIPK2 and of all of the other protein kinases used for specificity assays is as described elsewhere
T2 sequence (Q9H2X6 whole entry): as above
Description: The source of HIPK2 and of all of the other protein kinases used for specificity assays is as described elsewhere. […] The reaction was stopped by addition of 5 μl of 0.5 M orthophosphoric acid before spotting aliquots onto phosphocellulose filters. Filters were washed in 75 mM phosphoric acid (5-10 ml/each) four times and then once in methanol and dried before counting.

[5] = biological target: CAMK1 (Homo sapiens, UniProt Q14012); assay: Kinase panel selectivity profiling; format: biochemical; details: TBID 1 μM, 125 kinase panel, read-out: % activity of the enzyme
Sequence of CAMK1 (Q14012 whole entry): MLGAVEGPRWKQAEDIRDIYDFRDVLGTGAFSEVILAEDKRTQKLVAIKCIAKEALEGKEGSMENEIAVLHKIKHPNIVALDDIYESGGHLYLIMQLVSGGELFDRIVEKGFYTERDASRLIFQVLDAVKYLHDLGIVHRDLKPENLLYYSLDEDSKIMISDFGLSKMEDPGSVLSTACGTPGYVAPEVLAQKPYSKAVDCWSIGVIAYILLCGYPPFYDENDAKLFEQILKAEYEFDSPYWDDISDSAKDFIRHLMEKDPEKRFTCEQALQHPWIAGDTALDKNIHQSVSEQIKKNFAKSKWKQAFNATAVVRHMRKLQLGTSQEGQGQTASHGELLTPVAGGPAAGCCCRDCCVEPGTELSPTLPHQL
Excerpt: (§3) The source of HIPK2 and of all of the other protein kinases used for specificity assays is as described elsewhere.
as §2

[6] = biological target: VEG-FR (Homo sapiens, UniProt P17948); assay: Kinase panel selectivity profiling; format: biochemical; details: TBID 1 μM, 125 kinase panel, read-out: % activity of the enzyme
Excerpt: as §3, §2

[7] = biological target: CHK1 (Homo sapiens, UniProt O14757); assay: Kinase panel selectivity profiling; format: biochemical; details: TBID 1 μM, 125 kinase panel, read-out: % activity of the enzyme
Sequence of CHK1 (O14757 whole entry): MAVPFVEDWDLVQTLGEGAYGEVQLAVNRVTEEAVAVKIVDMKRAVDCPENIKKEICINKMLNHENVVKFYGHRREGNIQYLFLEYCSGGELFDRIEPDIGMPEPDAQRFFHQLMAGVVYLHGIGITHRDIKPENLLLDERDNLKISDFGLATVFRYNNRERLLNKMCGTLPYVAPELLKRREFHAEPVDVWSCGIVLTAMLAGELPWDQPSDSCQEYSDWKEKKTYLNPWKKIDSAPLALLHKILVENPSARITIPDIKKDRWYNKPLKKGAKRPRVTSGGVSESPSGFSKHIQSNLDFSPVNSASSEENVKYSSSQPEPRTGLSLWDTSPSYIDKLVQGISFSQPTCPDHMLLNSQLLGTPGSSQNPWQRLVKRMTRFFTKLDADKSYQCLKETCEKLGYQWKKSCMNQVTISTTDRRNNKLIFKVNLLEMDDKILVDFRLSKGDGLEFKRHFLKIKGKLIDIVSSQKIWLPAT
Excerpt: as §3, §2

[8] = biological target: MLK3 (Homo sapiens, UniProt Q16584); assay: Kinase panel selectivity profiling; format: biochemical; details: TBID 1 μM, 125 kinase panel, read-out: % activity of the enzyme
Sequence of MLK3 (Q16584 whole entry): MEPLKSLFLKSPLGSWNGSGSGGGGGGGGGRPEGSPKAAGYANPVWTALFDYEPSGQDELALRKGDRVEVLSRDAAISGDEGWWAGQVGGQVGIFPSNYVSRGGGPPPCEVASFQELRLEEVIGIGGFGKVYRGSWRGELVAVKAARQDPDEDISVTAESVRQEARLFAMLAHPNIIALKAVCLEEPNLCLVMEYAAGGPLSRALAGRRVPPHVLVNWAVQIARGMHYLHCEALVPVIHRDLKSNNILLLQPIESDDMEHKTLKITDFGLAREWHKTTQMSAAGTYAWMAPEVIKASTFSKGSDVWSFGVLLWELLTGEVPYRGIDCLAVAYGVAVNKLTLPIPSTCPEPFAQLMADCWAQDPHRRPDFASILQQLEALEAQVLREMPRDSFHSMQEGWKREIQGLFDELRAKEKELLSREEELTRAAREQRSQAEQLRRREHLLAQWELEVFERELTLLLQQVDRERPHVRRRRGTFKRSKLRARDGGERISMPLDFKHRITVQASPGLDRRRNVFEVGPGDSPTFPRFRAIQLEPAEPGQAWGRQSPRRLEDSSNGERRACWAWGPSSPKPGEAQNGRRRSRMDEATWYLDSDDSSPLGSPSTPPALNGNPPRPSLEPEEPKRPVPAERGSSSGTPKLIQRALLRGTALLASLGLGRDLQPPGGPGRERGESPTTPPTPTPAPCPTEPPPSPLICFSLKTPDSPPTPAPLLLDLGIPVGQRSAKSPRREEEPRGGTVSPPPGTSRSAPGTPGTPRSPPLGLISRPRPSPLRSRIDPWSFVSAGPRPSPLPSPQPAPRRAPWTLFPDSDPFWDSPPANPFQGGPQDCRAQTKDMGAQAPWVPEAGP
Excerpt: as §3, §2

[9] = biological target: S6K1 (Homo sapiens, UniProt P23443); assay: Kinase panel selectivity profiling; format: biochemical; details: TBID 1 μM, 125 kinase panel, read-out: % activity of the enzyme
Sequence of S6K1 (P23443 whole entry): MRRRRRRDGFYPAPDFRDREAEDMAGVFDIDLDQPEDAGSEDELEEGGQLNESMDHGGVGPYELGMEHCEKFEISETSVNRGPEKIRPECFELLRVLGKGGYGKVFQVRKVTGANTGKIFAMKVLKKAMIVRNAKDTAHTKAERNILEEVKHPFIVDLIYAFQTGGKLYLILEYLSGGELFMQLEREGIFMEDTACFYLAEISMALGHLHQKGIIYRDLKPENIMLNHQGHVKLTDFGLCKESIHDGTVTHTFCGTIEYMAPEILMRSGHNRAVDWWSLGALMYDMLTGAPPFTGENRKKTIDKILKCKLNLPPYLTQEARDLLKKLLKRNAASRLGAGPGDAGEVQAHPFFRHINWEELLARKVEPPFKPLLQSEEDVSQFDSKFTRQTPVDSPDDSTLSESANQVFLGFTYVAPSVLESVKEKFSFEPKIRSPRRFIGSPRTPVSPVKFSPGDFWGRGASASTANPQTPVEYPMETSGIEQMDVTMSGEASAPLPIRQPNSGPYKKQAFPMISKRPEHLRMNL
Excerpt: as §3, §2

[10] = biological target: EPH-B3 (Homo sapiens, UniProt P54753); assay: Kinase panel selectivity profiling; format: biochemical; details: TBID 1 μM, 125 kinase panel, read-out: % activity of the enzyme
Sequence of EPH-B3 (P54753 34-998): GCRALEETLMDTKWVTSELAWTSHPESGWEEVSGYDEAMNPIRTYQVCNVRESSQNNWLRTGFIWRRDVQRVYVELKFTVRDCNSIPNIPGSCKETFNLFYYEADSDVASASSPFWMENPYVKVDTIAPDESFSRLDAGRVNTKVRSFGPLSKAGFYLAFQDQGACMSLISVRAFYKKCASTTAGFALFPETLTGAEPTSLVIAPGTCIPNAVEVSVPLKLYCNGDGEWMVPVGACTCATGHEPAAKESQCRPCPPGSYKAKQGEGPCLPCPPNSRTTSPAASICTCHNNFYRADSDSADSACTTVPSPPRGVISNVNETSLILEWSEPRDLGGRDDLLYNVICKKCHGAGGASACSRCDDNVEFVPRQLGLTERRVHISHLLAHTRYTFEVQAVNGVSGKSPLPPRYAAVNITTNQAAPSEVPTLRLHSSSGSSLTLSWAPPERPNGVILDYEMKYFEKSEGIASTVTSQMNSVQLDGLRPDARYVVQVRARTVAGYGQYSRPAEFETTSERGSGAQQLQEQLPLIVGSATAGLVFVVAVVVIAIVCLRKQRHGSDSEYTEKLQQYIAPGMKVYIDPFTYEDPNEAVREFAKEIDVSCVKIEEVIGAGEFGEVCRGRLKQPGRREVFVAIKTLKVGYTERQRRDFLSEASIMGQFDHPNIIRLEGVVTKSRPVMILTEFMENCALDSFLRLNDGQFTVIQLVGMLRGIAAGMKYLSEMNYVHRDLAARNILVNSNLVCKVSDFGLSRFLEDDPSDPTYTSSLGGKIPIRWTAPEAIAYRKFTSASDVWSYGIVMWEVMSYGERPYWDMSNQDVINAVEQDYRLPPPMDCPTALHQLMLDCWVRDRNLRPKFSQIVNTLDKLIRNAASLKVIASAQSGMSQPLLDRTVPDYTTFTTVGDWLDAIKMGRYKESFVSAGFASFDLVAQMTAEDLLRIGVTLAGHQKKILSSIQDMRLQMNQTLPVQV
Excerpt: as §3, §2

[11] = biological target: T2, HIPK2; assay: Kinetic analysis of HIPK2 inhibition (Lineweaver-Burk); format: biochemical
Description: Initial velocities were determined at each of the ATP concentration tested, at 1 mM […] peptide concentration. Km values were calculated either in the absence or in the presence of increasing concentrations of inhibitor, from Lineweaver-Burk double-reciprocal plots of the data. Inhibition constants were then calculated by linear regression analysis of Km/Vmax versus inhibitor concentration plots.

[12] = biological target: T3, CK2 (Rattus norvegicus, UniProt P19139); assay: CK2 phosphorylation assay; format: biochemical; details: 20 µM ATP
T3 construct: Native CK2 and CK1 were purified from rat liver; from tissue; host or cells: rat liver
T3 sequence (P19139 whole entry): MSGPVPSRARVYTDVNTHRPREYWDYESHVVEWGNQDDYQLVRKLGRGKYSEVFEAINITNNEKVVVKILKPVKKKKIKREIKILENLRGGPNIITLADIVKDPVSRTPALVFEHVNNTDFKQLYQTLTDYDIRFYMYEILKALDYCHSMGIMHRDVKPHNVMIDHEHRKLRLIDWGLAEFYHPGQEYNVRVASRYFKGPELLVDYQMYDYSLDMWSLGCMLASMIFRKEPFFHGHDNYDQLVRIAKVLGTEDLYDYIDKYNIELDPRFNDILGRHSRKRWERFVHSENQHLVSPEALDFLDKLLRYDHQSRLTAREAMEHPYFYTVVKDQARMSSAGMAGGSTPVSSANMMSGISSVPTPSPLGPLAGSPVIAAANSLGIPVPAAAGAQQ
T3 sequence (P67874 whole entry partner): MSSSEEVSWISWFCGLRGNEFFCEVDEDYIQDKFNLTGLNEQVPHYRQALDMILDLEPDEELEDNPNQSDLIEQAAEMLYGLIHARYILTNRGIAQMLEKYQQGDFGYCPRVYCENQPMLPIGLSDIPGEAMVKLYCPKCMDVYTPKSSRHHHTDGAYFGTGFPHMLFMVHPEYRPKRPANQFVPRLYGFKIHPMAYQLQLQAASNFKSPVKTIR
Description: Native CK2 and CK1 were purified from rat liver.
PIM1, CK2, CK1 phosphorylation assays were performed following similar procedures used for HIPK2 except that preincubation was omitted. In detail, PIM1 activity was determined at 100 µM ATP concentration and in the presence of 30 µM synthetic peptide substrate […]. CK2 and CK1 activities were assayed in a buffer containing 50 mM Tris/HCl (pH 7.5), 100 mM NaCl, 12 mM MgCl2, 100 µM specific peptide substrate […] (for CK2), or 200 µM […] (for CK1) and 20 µM [γ-^33P]ATP (500–1000 c.p.m./pmol).

[13] = system: HepG2 or CEM cells; assay: Cell viability (MTT) and PARP cleavage; format: cell-based, human; details: 6 h, PARP (Figure 6C)
Description: as §1
Cell viability was evaluated by means of MTT (3-(4,5-dimethylthiazol-2-yl)-[…] bromide) reagent; 10^5 cells/100 µl were incubated in a 96-well plate and treated for 6 h as indicated. 1 h before the end of the incubation, 10 µl of MTT solution (5 mg/ml in PBS) was added to each well. Incubations were stopped by addition of 20 µl of lysis solution at pH 4.7, as described elsewhere. Plates were read for OD at λ 590 nm, in a Titertek Multiskan Plus plate reader (Flow Laboratories). Apoptosis was evaluated looking for the cleavage of the caspase substrate PARP with anti-PARP antibody (Roche), recognizing both the full length (116 kDa) and the cleaved fragment (85 kDa) of PARP.

Compound: O=C1c2c(Br)c(Br)c(Br)c(Br)c2C(=O)N1c1ncc[nH]1 [TBID, 4,5,6,7-Tetrabromo-2-(1H-imidazol-2-yl)isoindoline-1,3-dione]
- IC50 ([1]; HIPK2 activity in cells treated with TBID, read-out: IC50 in cells (concentration required for half maximal inhibition)): ~50 µM and 50 µM
- endogenous HIPK2 activity upon cell treatment ([1]; HepG2 cells, increasing concentrations, immunoprecipitated HIPK2): reduced in a dose dependent manner
- number of kinases inhibited >90% ([2]; 10 µM TBID): 1
- Gini coefficient ([2]; 10 µM, 76 PKs): 0.592
- Hit rate ([2]; 10 µM, 76 PKs, kinases inhibited >50%): 0.10
- phosphorylation level of p53 Ser46 [3]: markedly reduces
- IC50 [4]: 0.33 µM
- activity at 1 µM [5]: 78%
- activity at 1 µM [6]: 115%
- activity at 1 µM [7]: 102%
- activity at 1 µM [8]: 97%
- activity at 1 µM [9]: 94%
- activity at 1 µM [10]: 103%
- Ki [11]: 0.2 µM
- mode of inhibition of HIPK2 ([11]; with respect to ATP): competitive with respect to ATP
- IC50 [12]: 5.5 µM
- cell toxicity [13]: devoid of cell toxicity
